Entries after “also recorded” stand apart in the source; their conditions may differ.
Experiments:
[1] = system: interaction of snRNA with E2F1; test: Anti-E2F1 RNA immunoprecipitation (RIP), co-immunoprecipitating snRNA by qRT-PCR; assay type: cell-based; conditions: 5 μM PRMT5 inhibitor; U2OS, HCT116 and MCF7 cells; FIGS. 3B, E and F
Procedure: B) U2OS cells were treated with 5 μM PRMT5 inhibitor (P5 inh) as indicated, prior to performing an anti-E2F1 RIP. Co-immunoprecipitating U6 (i) and U4 (ii) snRNAs were identified with specific primers by qRT-PCR. Input protein levels were determined by immunoblot (iii). n=3
E) HCT116 cells were treated with 5 μM PRMT5 inhibitor (P5 inh) where indicated, prior to performing an anti-E2F1 RIP. Co-immunoprecipitated U1 (i) and U6 (ii) snRNA were detected by qRT-PCR.
F) As above, though the experiment was performed in MCF7 cells.
A) U2OS cells (i) and HCT116 cells (ii) were transfected for 96 h with 25 nM non-targeting (siNT) or p100/TSN specific siRNA, prior to lysis in RIP buffer. Cell extracts were immunoprecipitated with E2F1 antibody and co-immunoprecipitating RNA was reverse transcribed prior to QPCR analysis with primers against U5 (i) and U6 (ii) snRNAs as indicated. Input protein levels were determined by immunoblot.
RNA was isolated from cells using TRIzol (Thermo Fisher) according to the manufacturer's instructions. 1 μg of total RNA was used for cDNA synthesis. For standard mRNA analysis oligo(d)T20 (Invitrogen) was added. […] Results were expressed as average (mean) fold change compared to control treatments using the ΔΔCt method from three biological repeat samples. […]

[2] = system: interaction between E2F1 and SENP7 V5 RNA; test: Anti-E2F1 RIP, co-immunoprecipitating SENP7 V5 transcripts by qRT-PCR; assay type: cell-based; conditions: 5 μM; HCT116 cells; FIG. 4C
Procedure: C) HCT116 cells were treated with 5 μM PRMT5 inhibitor (P5 inh) where indicated prior to performing an anti-E2F1 RIP. Co-immunoprecipitating SENP7 V5 transcripts were analysed by qRT-PCR.
RNA was isolated from cells using TRIzol (Thermo Fisher) according to the manufacturer's instructions. 1 μg of total RNA was used for cDNA synthesis. For standard mRNA analysis oligo(d)T20 (Invitrogen) was added. For splice variant analysis, RNA was DNAse treated (Sigma-Aldrich) prior to cDNA synthesis using random hexamers (Invitrogen). M-MLV reverse transcriptase (Promega) was used as per the manufacturer's instructions. qRT-PCR was carried out in triplicate using the indicated primer pairs and Brilliant III SYBR Green QPCR Master Mix (Stratagene) on an MX3005P (Agilent) QPCR instrument. Results were expressed as average (mean) fold change compared to control treatments using the ΔΔCt method from three biological repeat samples. GAPDH or actin primer sets were used as an internal calibrator. Error bars represent standard error unless otherwise indicated.
Cells were washed once with PBS before UV cross-linking at 900 mJ/cm^2 using a Stratalinker (Stratagene). RIP lysis buffer (50 mM Tris-HCl pH 8.0, 150 mM NaCl, 1 mM MgCl2, 10% glycerol [v/v], 1% NP-40 [v/v], 1 mM DTT, 0.2 mM sodium orthovanadate and protease inhibitor cocktails) was added directly to the plate, on ice. […]

PRMT5 = PRMT5 (Homo sapiens, UniProt O14744); conditions: cited from earlier work
[3] = system: chromatin-associated SUMOylation on the p73 promoter; test: ChIP with anti-SUMO2/3 antibody on the p73 promoter; assay type: cell-based; conditions: 5 μM, 72 h; U2OS cells; FIG. 6A
Procedure: A) U2OS cells were treated with 5 μM PRMT5 inhibitor (P5 inh) for 72 h where indicated, prior to ChIP analysis with anti-SUMO2/3 specific or control antibodies. Immunoprecipitated chromatin was analysed using primers specific for the E2F site in the p73 promoter (i). An RT-PCR was also performed to monitor the levels of p73 transcripts in the cell (ii). […] See also FIGS. 10F and 10G. ChIP was performed as described previously [(29) or (30)]. Antibodies used for immunoprecipitation were as follows: anti-E2F1 (C-20), anti-HA (16B12), anti-HP1α (NB110-40623, Novus Biologicals; RRID: AB_714949), anti-SUMO2/3 (8A2; Abcam; RRID: AB_1658424), non-specific rabbit or mouse IgG. The recovered DNA was analysed in triplicate by real-time QPCR as described (30, 31) on a MX3005P QPCR system using Brilliant III SYBR Green QPCR Master Mix according to the manufacturer's instructions. Results were expressed as average (mean) fold change compared to IgG control treatments using the ΔΔCt method from triplicate biological repeat samples. Alternatively, a standard curve was generated to calculate ChIP/input signals that were subsequently used to generate fold change values compared to IgG control. Error bars represent standard error unless otherwise indicated.

p73 transcripts = test: RT-PCR of p73 transcripts in treated cells; assay type: cell-based; conditions: 5 μM; U2OS and HCT116 cells; FIG. 6A, FIGS. 10F and G
Procedure: A) U2OS cells were treated with 5 μM PRMT5 inhibitor (P5 inh) for 72 h where indicated, prior to ChIP analysis with anti-SUMO2/3 specific or control antibodies. Immunoprecipitated chromatin was analysed using primers specific for the E2F site in the p73 promoter (i). An RT-PCR was also performed to monitor the levels of p73 transcripts in the cell (ii). […] See also FIGS. 10F and 10G. F) U2OS cells were treated with 5 μM PRMT5 inhibitor (P5 inh) as indicated, prior to RNA extraction and qRT-PCR analysis with primers recognising total p73 or CDC6 transcripts as indicated (i). […] 1 μg of total RNA was used for cDNA synthesis. For standard mRNA analysis oligo(d)T20 (Invitrogen) was added. For splice variant analysis, RNA was DNAse treated (Sigma-Aldrich) prior to cDNA synthesis using random hexamers (Invitrogen). M-MLV reverse transcriptase (Promega) was used as per the manufacturer's instructions. qRT-PCR was carried out in triplicate using the indicated primer pairs and Brilliant III SYBR Green QPCR Master Mix (Stratagene) on an MX3005P (Agilent) QPCR instrument. Results were expressed as average (mean) fold change compared to control treatments using the ΔΔCt method from three biological repeat samples. GAPDH or actin primer sets were used as an internal calibrator. Error bars represent standard error unless otherwise indicated.

Mantle Cell Lymphoma = conditions: in vitro and in vivo models of Mantle Cell Lymphoma; cited from earlier work
SENP7 RNA variants = test: qRT-PCR of SENP7 transcript variants in treated cells; assay type: cell-based; conditions: 5 μM, 72 h; U2OS and HCT116 cells; FIGS. 4D and 4E
Procedure: D) U2OS cells were treated for 72 h with 5 μM PRMT5 inhibitor (P5 inh). RNA was then isolated from cells and analysed by qRT-PCR using primers targeting specific SENP7 transcript variants or total SENP7 RNA. […] E) As above, though the experiment was performed in HCT116 cells. n=4 RNA was isolated from cells using TRIzol (Thermo Fisher) according to the manufacturer's instructions. 1 μg of total RNA was used for cDNA synthesis. For standard mRNA analysis oligo(d)T20 (Invitrogen) was added. For splice variant analysis, RNA was DNAse treated (Sigma-Aldrich) prior to cDNA synthesis using random hexamers (Invitrogen). M-MLV reverse transcriptase (Promega) was used as per the manufacturer's instructions. qRT-PCR was carried out in triplicate using the indicated primer pairs and Brilliant III SYBR Green QPCR Master Mix (Stratagene) on an MX3005P (Agilent) QPCR instrument. Results were expressed as average (mean) fold change compared to control treatments using the ΔΔCt method from three biological repeat samples. GAPDH or actin primer sets were used as an internal calibrator. Error bars represent standard error unless otherwise indicated.

[4] = system: chromatin-associated HP1a; test: ChIP with anti-HP1a antibody on the p73 promoter; assay type: cell-based; conditions: PRMT5 inhibitor 24 h or 48 h; U2OS cells; FIG. 6B
Procedure: B) As above, though cells were treated with the PRMT5 inhibitor (P5 inh) for 24 h or 48 h as indicated. ChIP analysis was performed with anti-HP1a specific or control antibodies (i).
C) U2OS cells were transfected with SENP7 siRNA or non-targeting siRNA (siNT) for 96 h as indicated. Cells were then prepared for ChIP analysis as above (i).
ChIP was performed as described previously [(29) or (30)]. Antibodies used for immunoprecipitation were as follows: anti-E2F1 (C-20), anti-HA (16B12), anti-HP1α (NB110-40623, Novus Biologicals; RRID: AB_714949), anti-SUMO2/3 (8A2; Abcam; RRID: AB_1658424), non-specific rabbit or mouse IgG. The recovered DNA was analysed in triplicate by real-time QPCR as described (30, 31) on a MX3005P QPCR system using Brilliant III SYBR Green QPCR Master Mix according to the manufacturer's instructions. Results were expressed as average (mean) fold change compared to IgG control treatments using the ΔΔCt method from triplicate biological repeat samples. Alternatively, a standard curve was generated to calculate ChIP/input signals that were subsequently used to generate fold change values compared to IgG control. Error bars represent standard error unless otherwise indicated.

Sequence of PRMT5 (O14744 whole entry): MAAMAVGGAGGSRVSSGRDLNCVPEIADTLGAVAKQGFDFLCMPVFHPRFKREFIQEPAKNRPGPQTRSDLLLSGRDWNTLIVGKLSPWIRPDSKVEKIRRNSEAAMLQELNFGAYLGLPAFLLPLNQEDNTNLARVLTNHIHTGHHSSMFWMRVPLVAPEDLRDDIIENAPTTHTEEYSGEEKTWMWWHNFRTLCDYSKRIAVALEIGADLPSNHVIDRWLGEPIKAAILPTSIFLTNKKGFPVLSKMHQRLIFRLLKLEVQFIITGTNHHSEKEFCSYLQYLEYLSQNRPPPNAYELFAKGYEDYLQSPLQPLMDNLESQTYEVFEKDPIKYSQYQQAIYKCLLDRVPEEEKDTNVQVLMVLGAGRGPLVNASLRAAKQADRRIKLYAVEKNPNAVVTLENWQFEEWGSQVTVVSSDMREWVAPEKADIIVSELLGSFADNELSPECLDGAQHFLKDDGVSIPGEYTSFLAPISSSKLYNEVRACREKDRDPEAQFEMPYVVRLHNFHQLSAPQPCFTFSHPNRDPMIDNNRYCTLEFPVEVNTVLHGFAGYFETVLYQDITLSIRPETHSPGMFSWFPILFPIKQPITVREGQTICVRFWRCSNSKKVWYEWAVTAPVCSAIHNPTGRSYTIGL
Sequence of PRMT5 (Q9BQA1 whole entry partner): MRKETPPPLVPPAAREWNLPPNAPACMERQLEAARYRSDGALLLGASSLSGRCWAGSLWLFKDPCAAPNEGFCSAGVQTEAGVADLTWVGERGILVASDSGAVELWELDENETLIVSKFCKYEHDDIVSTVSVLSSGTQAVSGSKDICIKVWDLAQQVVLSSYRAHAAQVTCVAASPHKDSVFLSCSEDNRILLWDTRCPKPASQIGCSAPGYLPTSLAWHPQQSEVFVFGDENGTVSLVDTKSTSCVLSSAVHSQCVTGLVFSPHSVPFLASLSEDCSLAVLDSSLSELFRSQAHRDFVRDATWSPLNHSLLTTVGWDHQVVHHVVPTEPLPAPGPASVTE

O=C(NC[C@H](O)CN1CCc2ccccc2C1)c1cc(NC2COC2)ncn1 [EPZ015666]
interaction of snRNA with E2F1 [1]: absent
interaction between E2F1 and V5 RNA [2]: reduced
inhibition of PRMT5 (PRMT5): potent and selective inhibitor
chromatin-associated SUMOylation on the p73 promoter [3]: increase
levels of transcription (p73) (p73 transcripts): reduced levels
antiproliferative effects (Mantle Cell Lymphoma): antiproliferative effects
level of the SENP7 V5 RNA variant (SENP7 RNA variants): lower level; also recorded: down-regulates
level of the other SENP7 RNA variants (SENP7 RNA variants): increased
association of HP1a with chromatin (p73 promoter) [4]: increased association

Source: patent publication US20220118070A1, “CANCER THERAPY BY MODIFYING NEOANTIGEN EXPRESSION” (priority 2019, published 2022)
